Results as given in ChEMBL document CHEMBL1147320, “Isolation of a novel tyrosine kinase inhibitor, lavendustin A, from Streptomyces griseolavendus” (J Nat Prod, 1989).
Values after ≈ are worked out from the molar mass of the structure shown. Blank lines part the entries; values can stand above or below the molecule they belong to. Active and inactive are the calls of the source. The calls are words filed in the database; no cut-off is given here.

Experiments:
[1] = biological target: Epidermal growth factor receptor (Mus musculus, UniProt Q01279); test: Inhibition of mouse EGFR by liquid scintillation counting
[2] = Inhibition of protein kinase A
[3] = Inhibition of protein kinase C
[4] = Inhibition of phosphatidylinositol kinase
[5] = biological target: Epidermal growth factor receptor (Homo sapiens, UniProt P00533)
[6] = test system: A-431; test: Cytotoxicity against human A431 cells; assay type: functional, cell-based
[7] = biological target: Epidermal growth factor receptor (Mus musculus) (UniProt Q01279); test: Inhibition of mouse EGFR using [32P]gammaATP as substrate by competitive Lineweaver-Burke plot
[8] = biological target: Epidermal growth factor receptor (Mus musculus) (UniProt Q01279); test: Inhibition of mouse EGFR using tridecapeptide as substrate by uncompetitive Lineweaver-Burke plot
[9] = Cytotoxicity against mouse NIH/3T3 cells; assay type: cell-based; conditions: NIH3T3
[10] = test system: NIH3T3; test: Cytotoxicity against RSV transformed mouse NIH/3T3 cells; assay type: functional, cell-based
[11] = test system: P388; test: Cytotoxicity against mouse P388 cells; assay type: functional, cell-based
[12] = test system: L1210; test: Cytotoxicity against mouse L1210 cells; assay type: functional, cell-based

Chain of Epidermal growth factor receptor (Mus musculus, UniProt Q01279) (Q01279 whole entry): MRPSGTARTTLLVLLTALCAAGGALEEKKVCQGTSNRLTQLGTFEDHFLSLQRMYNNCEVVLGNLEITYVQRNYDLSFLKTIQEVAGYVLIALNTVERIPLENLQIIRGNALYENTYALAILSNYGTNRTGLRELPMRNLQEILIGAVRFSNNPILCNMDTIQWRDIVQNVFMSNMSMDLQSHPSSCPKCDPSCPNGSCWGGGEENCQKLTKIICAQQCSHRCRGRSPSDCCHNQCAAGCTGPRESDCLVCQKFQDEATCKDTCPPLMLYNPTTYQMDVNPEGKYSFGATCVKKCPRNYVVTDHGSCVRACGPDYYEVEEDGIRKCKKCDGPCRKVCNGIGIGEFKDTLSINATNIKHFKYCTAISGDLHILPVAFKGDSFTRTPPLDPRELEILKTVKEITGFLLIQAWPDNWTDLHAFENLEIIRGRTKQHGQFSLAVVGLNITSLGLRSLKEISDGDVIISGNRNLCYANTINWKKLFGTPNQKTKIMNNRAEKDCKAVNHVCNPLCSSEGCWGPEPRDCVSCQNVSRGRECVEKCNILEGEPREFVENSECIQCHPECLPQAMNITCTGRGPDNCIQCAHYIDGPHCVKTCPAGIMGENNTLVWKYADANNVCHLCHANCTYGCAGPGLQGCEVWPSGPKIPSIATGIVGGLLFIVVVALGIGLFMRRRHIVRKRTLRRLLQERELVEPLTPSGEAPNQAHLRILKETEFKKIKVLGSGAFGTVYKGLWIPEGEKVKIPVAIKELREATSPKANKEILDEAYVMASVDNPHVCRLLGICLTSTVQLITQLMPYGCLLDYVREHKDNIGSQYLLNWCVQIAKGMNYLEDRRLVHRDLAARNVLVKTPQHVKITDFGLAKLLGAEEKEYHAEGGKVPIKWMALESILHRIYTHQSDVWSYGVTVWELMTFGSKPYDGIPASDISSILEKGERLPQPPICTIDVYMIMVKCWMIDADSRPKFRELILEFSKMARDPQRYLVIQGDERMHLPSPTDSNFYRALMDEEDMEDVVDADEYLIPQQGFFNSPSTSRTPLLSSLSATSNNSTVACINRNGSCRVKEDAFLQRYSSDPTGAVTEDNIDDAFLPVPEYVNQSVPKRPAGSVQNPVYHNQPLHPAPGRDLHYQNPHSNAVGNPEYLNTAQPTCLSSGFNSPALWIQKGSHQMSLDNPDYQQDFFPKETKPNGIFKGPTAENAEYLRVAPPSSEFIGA
Chain of Epidermal growth factor receptor (Mus musculus) (Q01279 whole entry): as above
Chain of Epidermal growth factor receptor (Homo sapiens, UniProt P00533) (P00533 whole entry): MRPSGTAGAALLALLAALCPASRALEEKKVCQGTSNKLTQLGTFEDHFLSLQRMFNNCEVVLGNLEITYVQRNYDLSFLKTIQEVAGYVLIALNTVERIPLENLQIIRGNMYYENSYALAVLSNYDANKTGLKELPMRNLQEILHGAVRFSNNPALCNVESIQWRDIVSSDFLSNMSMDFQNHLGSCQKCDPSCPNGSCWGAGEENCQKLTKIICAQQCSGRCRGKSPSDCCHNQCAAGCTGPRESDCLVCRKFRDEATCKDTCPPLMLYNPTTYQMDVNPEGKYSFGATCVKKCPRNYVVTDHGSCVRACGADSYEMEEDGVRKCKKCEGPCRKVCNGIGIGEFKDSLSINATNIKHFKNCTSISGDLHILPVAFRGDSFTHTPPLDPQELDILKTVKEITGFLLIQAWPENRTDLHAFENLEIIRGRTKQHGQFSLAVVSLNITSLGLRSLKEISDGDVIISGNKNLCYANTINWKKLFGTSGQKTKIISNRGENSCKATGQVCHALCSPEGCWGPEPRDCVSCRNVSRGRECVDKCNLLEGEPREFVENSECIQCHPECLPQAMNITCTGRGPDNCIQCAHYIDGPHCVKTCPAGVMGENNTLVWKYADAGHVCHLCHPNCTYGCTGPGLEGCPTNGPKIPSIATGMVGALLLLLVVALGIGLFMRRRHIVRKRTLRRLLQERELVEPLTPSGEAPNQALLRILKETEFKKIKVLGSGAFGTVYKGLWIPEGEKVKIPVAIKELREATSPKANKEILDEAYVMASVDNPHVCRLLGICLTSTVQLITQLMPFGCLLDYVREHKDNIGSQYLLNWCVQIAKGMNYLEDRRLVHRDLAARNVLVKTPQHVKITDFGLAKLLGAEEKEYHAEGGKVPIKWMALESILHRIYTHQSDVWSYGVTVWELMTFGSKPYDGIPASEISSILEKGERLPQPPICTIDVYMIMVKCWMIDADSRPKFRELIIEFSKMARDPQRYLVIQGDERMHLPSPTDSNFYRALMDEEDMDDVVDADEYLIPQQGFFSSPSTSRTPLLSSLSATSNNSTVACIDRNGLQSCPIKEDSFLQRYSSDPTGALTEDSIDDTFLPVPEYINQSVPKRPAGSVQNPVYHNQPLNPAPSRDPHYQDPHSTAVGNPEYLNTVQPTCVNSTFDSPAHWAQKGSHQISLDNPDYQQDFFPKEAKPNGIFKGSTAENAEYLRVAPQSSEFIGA

IC50 [1]: 1120 nM | IC50 [2]: 100 µg/mL (≈ 558 µM) | IC50 [3]: > 179 µg/mL | IC50 [4]: 25 µg/mL (≈ 140 µM) | IC50 [5]: 1120 nM
Structure (SMILES): O=CN/C=C/c1cc(O)ccc1O [ERBSTATIN]

IC50 [1]: 446 nM
Structure (SMILES): O=C(O)c1ccc(O)c(N(Cc2ccccc2O)Cc2cc(O)ccc2O)c1

IC50 [1]: > 653000 nM
Structure (SMILES): Nc1cc(C(=O)O)ccc1O

IC50 [1]: 2780 nM
Structure (SMILES): O=C(O)c1cc(/N=C\c2cc(O)ccc2O)ccc1O

IC50 [1]: 17600 nM
Structure (SMILES): Nc1ccc(O)c(C(=O)O)c1 [MESALAMINE]

IC50 [1]: 11.5 nM | IC50 [2]: > 100 µg/mL | IC50 [3]: > 100 µg/mL | IC50 [4]: 6.4 µg/mL (≈ 16.8 µM) | Activity [7]: Active | Activity [8]: Active
Structure (SMILES): O=C(O)c1cc(N(Cc2ccccc2O)Cc2cc(O)ccc2O)ccc1O [LAVENDUSTIN A]
IC50 [6]: 26 µg/mL (≈ 68.2 µM) | IC50 [9]: 22 µg/mL (≈ 57.7 µM) | IC50 [10]: 19.5 µg/mL (≈ 51.1 µM) | IC50 [11]: 21.5 µg/mL (≈ 56.4 µM) | IC50 [12]: 28 µg/mL (≈ 73.4 µM)

IC50 [1]: 239000 nM
Structure (SMILES): O=Cc1cc(O)ccc1O

IC50 [1]: 27.7 nM
Structure (SMILES): O=C(O)c1cc(N(Cc2cc(O)ccc2O)Cc2cc(O)ccc2O)ccc1O

IC50 [1]: 1340 nM
Structure (SMILES): O=C(O)c1cc(N(Cc2ccccc2O)Cc2ccccc2O)ccc1O [LAVENDUSTIN B]
